Source: ChEMBL document CHEMBL1201862, “PubChem BioAssay data set” (2004)
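The compound was tested at five concentrations on cells cultured in 96-well plates, with a 48-hour exposure period. Here, GI50 denotes the concentration required for 50% inhibition of growth.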 The source made the active and inactive calls. No stated cut-off is given here; in the data, active = GI50 up to about 1.1 µM and inactive = higher.

Assays:
Assay in all cases: inhibition of tumour cell growth, NCI panel, 48 h
SK-MEL-28 = test system: SK-MEL-28
CAKI-1 = test system: CAKI-1
HOP-62 = test system: HOP-62
OVCAR-3 = test system: OVCAR-3
SK-OV-3 = test system: SK-OV-3
Malme-3M = test system: Malme-3M
TK-10 = test system: TK-10
UO-31 = test system: UO-31
NCI-H23 = test system: NCI-H23
KM12 = test system: KM12
MDA-MB-435 = test system: MDA-MB-435
SK-MEL-5 = test system: SK-MEL-5
HT-29 = test system: HT-29
MDA-MB-231 = test system: MDA-MB-231
MOLT-4 = test system: MOLT-4
UACC-62 = test system: UACC-62
HCT-15 = test system: HCT-15
OVCAR-5 = test system: OVCAR-5
SF-539 = test system: SF-539
SNB-75 = test system: SNB-75

Compound | GI50 (SK-MEL-28) | GI50 (CAKI-1) | GI50 (HOP-62) | GI50 (OVCAR-3) | GI50 (SK-OV-3) | GI50 (Malme-3M) | GI50 (TK-10) | GI50 (UO-31) | GI50 (NCI-H23) | GI50 (KM12) | GI50 (MDA-MB-435) | GI50 (SK-MEL-5) | GI50 (HT-29) | GI50 (MDA-MB-231) | GI50 (MOLT-4) | GI50 (UACC-62) | GI50 (HCT-15) [µM] | GI50 (OVCAR-5) | GI50 (SF-539) | GI50 (SNB-75)
COc1ccc(Cc2nc3cc(C(F)(F)F)ccc3n2CCCN(C)C)cc1 | 18 µM (inactive) | 18.2 µM (inactive) | 26 µM (inactive) | 17.3 µM (inactive) | 16.7 µM (inactive) | 13.7 µM (inactive) | 20.7 µM (inactive) | 0.246 µM (active) | 15.7 µM (inactive) | 16.7 µM (inactive) | 16.1 µM (inactive) | 16.2 µM (inactive) | 18.5 µM (inactive) | 24 µM (inactive) | 2.27 µM (inactive) | 17.7 µM (inactive) | 20 | 22.9 µM (inactive) | – | –
COc1cc(/C=C/C(=O)OCC23CC[C@@]4(C(=O)O)CCC(C)[C@H](C)C4C2=CCC2[C@@]4(C)CC[C@H](O)C(C)(C)C4CC[C@]23C)ccc1O (some centres not stated) | 37.8 µM (inactive) | 44.4 µM (inactive) | 13.4 µM (inactive) | 3.88 µM (inactive) | 29 µM (inactive) | 11.9 µM (inactive) | 2.97 µM (inactive) | – | 3.89 µM (inactive) | 29.9 µM (inactive) | 24.5 µM (inactive) | 16.1 µM (inactive) | 20.4 µM (inactive) | 46.3 µM (inactive) | 6.68 µM (inactive) | 19.6 µM (inactive) | 21.6 | 21.7 µM (inactive) | 14.7 µM (inactive) | –
CCOC(=O)c1c2cccccc-2nc1Nc1cccc2c(C)ccnc12 | > 10 µM (inactive) | > 10 µM (inactive) | > 10 µM (inactive) | 4.81 µM (inactive) | > 10 µM (inactive) | > 10 µM (inactive) | > 10 µM (inactive) | 9.16 µM (inactive) | > 10 µM (inactive) | > 10 µM (inactive) | > 10 µM (inactive) | > 10 µM (inactive) | 4.89 µM (inactive) | > 10 µM (inactive) | 5.16 µM (inactive) | 9.77 µM (inactive) | 6.31 | > 10 µM (inactive) | > 10 µM (inactive) | –
CN(C(=O)c1ccco1)C(=S)N1CCN(c2ccccn2)CC1 | > 100 µM (inactive) | > 100 µM (inactive) | > 100 µM (inactive) | > 100 µM (inactive) | > 100 µM (inactive) | > 100 µM (inactive) | > 100 µM (inactive) | > 100 µM (inactive) | > 100 µM (inactive) | > 100 µM (inactive) | – | > 100 µM (inactive) | > 100 µM (inactive) | – | > 100 µM (inactive) | > 100 µM (inactive) | > 100 | > 100 µM (inactive) | > 100 µM (inactive) | > 100 µM (inactive)
C[C@]12CCc3nonc3C1CC[C@@H]1C2CC[C@]2(C)C(=O)CCC12 (some centres not stated) | > 10 µM (inactive) | 14.8 µM (inactive) | > 100 µM (inactive) | 25.5 µM (inactive) | 33 µM (inactive) | 24.9 µM (inactive) | > 10 µM (inactive) | 20.6 µM (inactive) | 30.8 µM (inactive) | 20.9 µM (inactive) | – | 17.5 µM (inactive) | 17.2 µM (inactive) | – | 22.4 µM (inactive) | 21.7 µM (inactive) | 31.2 | > 100 µM (inactive) | 20.9 µM (inactive) | 28.8 µM (inactive)
C/C(Cc1ccc2c(c1)OCO2)=N\N=c1\sc2ccccc2n1C | > 100 µM (inactive) | > 100 µM (inactive) | > 100 µM (inactive) | > 100 µM (inactive) | – | > 100 µM (inactive) | > 100 µM (inactive) | > 100 µM (inactive) | 78 µM (inactive) | > 100 µM (inactive) | > 100 µM (inactive) | 45.2 µM (inactive) | 42.8 µM (inactive) | > 100 µM (inactive) | 78.3 µM (inactive) | > 100 µM (inactive) | 68.4 | > 100 µM (inactive) | > 100 µM (inactive) | –
N=C(NC(=N)Nc1ccc(S(=O)(=O)Nc2cnc3ccccc3n2)cc1)Nc1ccc(Br)cc1 | > 100 µM (inactive) | > 100 µM (inactive) | > 100 µM (inactive) | > 100 µM (inactive) | > 100 µM (inactive) | > 100 µM (inactive) | > 100 µM (inactive) | > 100 µM (inactive) | > 100 µM (inactive) | > 100 µM (inactive) | – | > 100 µM (inactive) | > 100 µM (inactive) | – | > 100 µM (inactive) | > 100 µM (inactive) | > 100 | > 100 µM (inactive) | > 100 µM (inactive) | 40.6 µM (inactive)
C[Si](C)(C)C1=C2C(=O)c3ccccc3C(=O)C2=C([Si](C)(C)C)[C@@H]2CCCC[C@H]12 | > 100 µM (inactive) | > 100 µM (inactive) | – | > 100 µM (inactive) | > 100 µM (inactive) | > 100 µM (inactive) | > 100 µM (inactive) | > 100 µM (inactive) | > 100 µM (inactive) | – | > 100 µM (inactive) | > 100 µM (inactive) | – | > 100 µM (inactive) | > 100 µM (inactive) | > 100 µM (inactive) | > 100 | > 100 µM (inactive) | > 100 µM (inactive) | –
c1ccc(C(=NCCC2CNc3ccccc32)c2ccccc2)cc1 (configuration not stated) | > 100 µM (inactive) | > 100 µM (inactive) | > 100 µM (inactive) | > 100 µM (inactive) | > 100 µM (inactive) | > 100 µM (inactive) | – | > 100 µM (inactive) | > 100 µM (inactive) | > 100 µM (inactive) | > 100 µM (inactive) | > 100 µM (inactive) | > 100 µM (inactive) | > 100 µM (inactive) | > 100 µM (inactive) | > 100 µM (inactive) | > 100 | > 100 µM (inactive) | – | –
NC(CCCNc1ccc(O)cc1)C(=O)O (configuration not stated) | 42.6 µM (inactive) | 48.2 µM (inactive) | > 80.2 µM (inactive) | 18.1 µM (inactive) | > 100 µM (inactive) | > 56.1 µM (inactive) | > 63.2 µM (inactive) | > 60 µM (inactive) | 97.9 µM (inactive) | 49.2 µM (inactive) | – | 25.8 µM (inactive) | 41.7 µM (inactive) | – | 25.4 µM (inactive) | 18.5 µM (inactive) | 30.1 | > 100 µM (inactive) | 35.2 µM (inactive) | 42.5 µM (inactive)
N#Cc1sc2c(c1O)c(=O)n(-c1ccccc1)c(=S)n2-c1ccccc1 | > 100 µM (inactive) | – | – | > 100 µM (inactive) | – | > 100 µM (inactive) | > 100 µM (inactive) | > 100 µM (inactive) | > 100 µM (inactive) | > 100 µM (inactive) | > 100 µM (inactive) | > 100 µM (inactive) | > 100 µM (inactive) | > 100 µM (inactive) | – | > 100 µM (inactive) | > 100 | > 100 µM (inactive) | – | > 100 µM (inactive)
O=Cc1cc2c(cc1-c1cc3c(cc1C=O)OCO3)OCO2 | 95.1 µM (inactive) | 66.2 µM (inactive) | > 100 µM (inactive) | 55.6 µM (inactive) | > 100 µM (inactive) | > 100 µM (inactive) | > 100 µM (inactive) | 71.6 µM (inactive) | 72.4 µM (inactive) | 83 µM (inactive) | – | > 100 µM (inactive) | 90.2 µM (inactive) | – | 45.5 µM (inactive) | > 100 µM (inactive) | 70.3 | > 100 µM (inactive) | > 100 µM (inactive) | > 100 µM (inactive)
O=C(N/N=C\c1ccc([N+](=O)[O-])cc1)Nc1ccccc1 | > 100 µM (inactive) | > 100 µM (inactive) | > 100 µM (inactive) | > 100 µM (inactive) | > 100 µM (inactive) | > 100 µM (inactive) | > 100 µM (inactive) | > 100 µM (inactive) | > 100 µM (inactive) | > 100 µM (inactive) | > 100 µM (inactive) | > 100 µM (inactive) | > 100 µM (inactive) | – | > 100 µM (inactive) | > 100 µM (inactive) | > 100 | > 100 µM (inactive) | – | > 100 µM (inactive)
CC(NC(CC12CC3CC(CC(C3)C1)C2)C(N)=O)c1ccccc1 (configuration not stated) | 20 µM (inactive) | 23.3 µM (inactive) | 28.1 µM (inactive) | 13.2 µM (inactive) | 5.27 µM (inactive) | 17.9 µM (inactive) | 26.6 µM (inactive) | 19.2 µM (inactive) | – | – | 16.7 µM (inactive) | 13.4 µM (inactive) | 21 µM (inactive) | 29.3 µM (inactive) | 16.2 µM (inactive) | 20.3 µM (inactive) | 31.7 | 17.5 µM (inactive) | – | –
COc1ccc(C2(C3c4cc(OC)c(OC)cc4CCN3C)SCCCS2)cc1O (configuration not stated) | 68.2 µM (inactive) | > 100 µM (inactive) | > 100 µM (inactive) | > 100 µM (inactive) | 72.9 µM (inactive) | > 100 µM (inactive) | > 100 µM (inactive) | > 100 µM (inactive) | > 100 µM (inactive) | 71.8 µM (inactive) | > 100 µM (inactive) | > 100 µM (inactive) | 49.3 µM (inactive) | > 100 µM (inactive) | 26 µM (inactive) | > 100 µM (inactive) | > 100 | > 100 µM (inactive) | > 100 µM (inactive) | –
Cc1cn(C2CC(O)C(Cn3nncc3Cn3cnc4c(N)ncnc43)O2)c(=O)[nH]c1=O (configuration not stated) | > 100 µM (inactive) | > 100 µM (inactive) | > 100 µM (inactive) | > 100 µM (inactive) | > 100 µM (inactive) | > 100 µM (inactive) | > 100 µM (inactive) | > 100 µM (inactive) | > 100 µM (inactive) | > 100 µM (inactive) | > 100 µM (inactive) | > 100 µM (inactive) | – | – | > 100 µM (inactive) | > 100 µM (inactive) | > 100 | > 100 µM (inactive) | > 100 µM (inactive) | 58.3 µM (inactive)
